Biological target: Dual specificity tyrosine-phosphorylation-regulated kinase 4 (Homo sapiens) (UniProt Q9NR20)
Test: inhibition of human DYRK4 phosphotransferase activity – biochemical, Z'-LYTE, FRET, protease-coupled, direct format, dose response (AID 1671209)
Settings: recombinant DYRK4

Dual specificity tyrosine-phosphorylation-regulated kinase 4 (Homo sapiens), sequence (Q9NR20 whole entry, looked up): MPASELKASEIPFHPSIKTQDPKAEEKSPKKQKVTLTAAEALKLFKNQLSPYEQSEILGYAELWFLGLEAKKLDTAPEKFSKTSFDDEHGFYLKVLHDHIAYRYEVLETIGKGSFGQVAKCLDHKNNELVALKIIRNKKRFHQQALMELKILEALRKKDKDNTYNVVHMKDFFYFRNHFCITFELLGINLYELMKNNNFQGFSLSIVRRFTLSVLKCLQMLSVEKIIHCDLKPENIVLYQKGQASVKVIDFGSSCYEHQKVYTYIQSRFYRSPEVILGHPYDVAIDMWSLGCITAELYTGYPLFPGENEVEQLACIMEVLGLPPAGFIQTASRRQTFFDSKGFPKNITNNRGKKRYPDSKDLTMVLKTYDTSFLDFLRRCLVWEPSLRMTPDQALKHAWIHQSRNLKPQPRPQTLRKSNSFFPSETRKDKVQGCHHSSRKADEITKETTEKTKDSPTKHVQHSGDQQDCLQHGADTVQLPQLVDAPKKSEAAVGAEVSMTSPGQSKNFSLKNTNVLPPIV

IC50: 12.9 µM
SMILES: Brc1c(Br)c(Br)c2n[nH]nc2c1Br

Reference: PubChem BioAssay AID1671209
